Source: PMC6886544
“And” between values parts separate entries of the source, which are not always exact repeats. Identical values can stand only once.

What was measured:
[1] = target: EPHA1 (Homo sapiens, UniProt P21709); assay: SelectScreen kinase profiling, EPHA1; assay type: biochemical; settings: mean ± SD of one measurement in duplicates
Description: (§1) Kinase profiling of compound 17a at a concentration of 1 µM generated with the SelectScreen® Profiling Service from Life Technologies.
(§2) Figure S2. Kinase profiling of compound 17a, Illustration as waterfall plot. 9 Kinases harboring a Cysteine isostructural to Cys797 in EGFR are highlighted
(§3) Kinase % inhibition Kinase % inhibition […]
(§4) aValues are the mean ± SD of one measurement in duplicates; bKinases harboring a Cysteine isostructural to Cys797 […]
(§5) (1 picture or pasted object on this page, not shown here)

[2] = target: ITK (Homo sapiens, UniProt Q08881); assay: SelectScreen kinase profiling, ITK; assay type: biochemical; settings: mean ± SD of one measurement in duplicates
Description: as §1, §2, §3, §4, §5

[3] = target: EPHB2 (Homo sapiens, UniProt P29323); assay: SelectScreen kinase profiling, EPHB2; assay type: biochemical; settings: mean ± SD of one measurement in duplicates
EPHB2, sequence (P29323 19-1055): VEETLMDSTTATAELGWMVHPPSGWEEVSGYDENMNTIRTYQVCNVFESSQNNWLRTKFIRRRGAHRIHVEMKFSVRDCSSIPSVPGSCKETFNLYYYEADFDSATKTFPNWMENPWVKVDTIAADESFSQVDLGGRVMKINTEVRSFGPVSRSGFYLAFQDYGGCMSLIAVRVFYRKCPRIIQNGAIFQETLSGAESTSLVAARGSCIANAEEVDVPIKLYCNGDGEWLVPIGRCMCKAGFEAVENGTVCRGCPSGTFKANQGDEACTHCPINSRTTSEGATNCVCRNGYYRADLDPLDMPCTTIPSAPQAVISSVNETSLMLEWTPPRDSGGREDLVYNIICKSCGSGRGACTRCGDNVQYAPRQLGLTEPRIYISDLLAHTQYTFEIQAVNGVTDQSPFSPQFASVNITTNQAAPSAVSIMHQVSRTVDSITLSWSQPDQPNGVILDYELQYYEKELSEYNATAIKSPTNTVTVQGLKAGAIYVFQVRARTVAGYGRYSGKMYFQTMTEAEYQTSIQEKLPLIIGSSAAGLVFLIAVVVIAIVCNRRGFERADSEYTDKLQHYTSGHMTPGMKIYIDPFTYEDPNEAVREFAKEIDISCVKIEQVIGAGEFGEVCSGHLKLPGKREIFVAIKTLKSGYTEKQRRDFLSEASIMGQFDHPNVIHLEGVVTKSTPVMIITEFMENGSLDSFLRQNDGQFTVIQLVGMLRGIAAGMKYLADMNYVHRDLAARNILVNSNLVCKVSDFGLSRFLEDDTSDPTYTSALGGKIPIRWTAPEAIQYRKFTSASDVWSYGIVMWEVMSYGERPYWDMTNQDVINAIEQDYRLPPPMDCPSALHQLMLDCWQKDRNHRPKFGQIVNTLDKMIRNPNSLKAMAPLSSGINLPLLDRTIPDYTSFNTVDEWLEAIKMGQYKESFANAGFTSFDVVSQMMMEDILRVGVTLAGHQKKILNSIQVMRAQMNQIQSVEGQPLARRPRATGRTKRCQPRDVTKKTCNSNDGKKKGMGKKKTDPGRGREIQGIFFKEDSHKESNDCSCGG
Description: as §1, §2, §3, §4, §5

[4] = target: EGFR-L861Q (Homo sapiens, UniProt P00533, L861Q); assay: SelectScreen kinase profiling, EGFR-L861Q; assay type: biochemical; settings: mean ± SD of one measurement in duplicates
Description: as §1, §2, §3, §4, §5

[5] = target: TXK (Homo sapiens, UniProt P42681); assay: SelectScreen kinase profiling, TXK; assay type: biochemical; settings: mean ± SD of one measurement in duplicates
TXK, sequence (P42681 whole entry): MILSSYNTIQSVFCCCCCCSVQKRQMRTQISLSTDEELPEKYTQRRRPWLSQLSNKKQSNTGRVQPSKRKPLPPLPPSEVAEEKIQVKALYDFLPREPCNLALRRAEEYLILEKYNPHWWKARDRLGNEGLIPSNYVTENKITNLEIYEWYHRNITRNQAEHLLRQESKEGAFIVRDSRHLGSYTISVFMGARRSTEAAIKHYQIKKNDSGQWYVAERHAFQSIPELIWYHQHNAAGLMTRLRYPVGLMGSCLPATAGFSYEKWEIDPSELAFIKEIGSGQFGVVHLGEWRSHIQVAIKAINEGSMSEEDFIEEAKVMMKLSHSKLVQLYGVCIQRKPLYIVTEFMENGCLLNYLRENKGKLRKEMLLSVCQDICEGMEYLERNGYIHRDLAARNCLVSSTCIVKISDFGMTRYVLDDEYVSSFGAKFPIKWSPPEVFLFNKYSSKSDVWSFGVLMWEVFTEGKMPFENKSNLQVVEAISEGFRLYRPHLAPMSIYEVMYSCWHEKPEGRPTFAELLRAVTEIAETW
Description: as §1, §2, §3, §4, §5

[6] = target: EGFR-wt (Homo sapiens, UniProt P00533); assay: SelectScreen kinase profiling, EGFR-wt; assay type: biochemical; settings: mean ± SD of one measurement in duplicates
Description: as §1, §2, §3, §4, §5

[7] = target: ErbB4 (Homo sapiens, UniProt Q15303); assay: SelectScreen kinase profiling, ErbB4; assay type: biochemical; settings: mean ± SD of one measurement in duplicates
Description: as §1, §2, §3, §4, §5

[8] = target: BTK (Homo sapiens, UniProt Q06187); assay: SelectScreen kinase profiling, BTK; assay type: biochemical; settings: mean ± SD of one measurement in duplicates
Description: as §1, §2, §3, §4, §5

[9] = target: YES1 (Homo sapiens, UniProt P07947); assay: SelectScreen kinase profiling, YES1; assay type: biochemical; settings: mean ± SD of one measurement in duplicates
Description: as §1, §2, §3, §4, §5

[10] = target: JAK3 (Homo sapiens, UniProt P52333); assay: SelectScreen kinase profiling, JAK3; assay type: biochemical; settings: mean ± SD of one measurement in duplicates
Description: as §1, §2, §3, §4, §5

[11] = target: BMX (Homo sapiens, UniProt P51813); assay: SelectScreen kinase profiling, BMX; assay type: biochemical; settings: mean ± SD of one measurement in duplicates
Description: as §1, §2, §3, §4, §5

[12] = target: Her2 (Homo sapiens, UniProt P04626); assay: SelectScreen kinase profiling, Her2; assay type: biochemical; settings: mean ± SD of one measurement in duplicates
Her2, sequence (P04626 23-1255): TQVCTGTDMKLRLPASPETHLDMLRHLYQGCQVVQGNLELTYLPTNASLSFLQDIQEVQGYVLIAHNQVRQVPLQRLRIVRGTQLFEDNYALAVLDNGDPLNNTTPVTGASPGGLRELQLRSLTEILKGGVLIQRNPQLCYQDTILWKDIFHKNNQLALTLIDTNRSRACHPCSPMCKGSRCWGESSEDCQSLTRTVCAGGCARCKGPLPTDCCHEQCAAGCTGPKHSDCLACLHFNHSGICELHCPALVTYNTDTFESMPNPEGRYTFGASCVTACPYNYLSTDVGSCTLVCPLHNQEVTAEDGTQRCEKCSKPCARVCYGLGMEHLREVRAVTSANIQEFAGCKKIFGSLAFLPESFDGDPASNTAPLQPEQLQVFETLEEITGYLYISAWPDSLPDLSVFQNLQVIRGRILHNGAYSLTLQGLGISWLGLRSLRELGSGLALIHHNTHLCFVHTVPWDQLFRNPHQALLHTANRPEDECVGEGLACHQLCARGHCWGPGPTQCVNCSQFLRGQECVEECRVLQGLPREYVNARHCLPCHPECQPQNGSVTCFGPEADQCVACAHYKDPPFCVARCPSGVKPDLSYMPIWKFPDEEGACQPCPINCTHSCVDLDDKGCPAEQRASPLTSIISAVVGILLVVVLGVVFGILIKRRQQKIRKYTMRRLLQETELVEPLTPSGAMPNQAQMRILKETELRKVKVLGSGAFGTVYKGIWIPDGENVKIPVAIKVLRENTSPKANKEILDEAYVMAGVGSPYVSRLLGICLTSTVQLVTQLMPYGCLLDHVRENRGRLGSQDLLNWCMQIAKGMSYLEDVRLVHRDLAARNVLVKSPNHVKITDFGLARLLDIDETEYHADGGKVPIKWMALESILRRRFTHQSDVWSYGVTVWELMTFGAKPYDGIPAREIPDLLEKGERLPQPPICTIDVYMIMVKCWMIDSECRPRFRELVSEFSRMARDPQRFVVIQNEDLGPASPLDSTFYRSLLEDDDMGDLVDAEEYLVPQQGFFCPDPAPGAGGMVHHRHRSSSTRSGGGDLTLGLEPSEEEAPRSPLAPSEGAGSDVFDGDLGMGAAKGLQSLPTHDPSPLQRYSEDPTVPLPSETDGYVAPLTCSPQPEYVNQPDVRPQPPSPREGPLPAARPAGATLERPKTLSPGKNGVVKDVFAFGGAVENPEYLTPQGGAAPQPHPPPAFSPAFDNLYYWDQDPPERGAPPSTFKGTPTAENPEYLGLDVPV
Description: as §1, §2, §3, §4, §5

[13] = target: EGFR-L858R (Homo sapiens, UniProt P00533, L858R); assay: Kinetic characterization (Ki, kinact), EGFR-L858R
EGFR-L858R, sequence (P00533 25-1210 L858R): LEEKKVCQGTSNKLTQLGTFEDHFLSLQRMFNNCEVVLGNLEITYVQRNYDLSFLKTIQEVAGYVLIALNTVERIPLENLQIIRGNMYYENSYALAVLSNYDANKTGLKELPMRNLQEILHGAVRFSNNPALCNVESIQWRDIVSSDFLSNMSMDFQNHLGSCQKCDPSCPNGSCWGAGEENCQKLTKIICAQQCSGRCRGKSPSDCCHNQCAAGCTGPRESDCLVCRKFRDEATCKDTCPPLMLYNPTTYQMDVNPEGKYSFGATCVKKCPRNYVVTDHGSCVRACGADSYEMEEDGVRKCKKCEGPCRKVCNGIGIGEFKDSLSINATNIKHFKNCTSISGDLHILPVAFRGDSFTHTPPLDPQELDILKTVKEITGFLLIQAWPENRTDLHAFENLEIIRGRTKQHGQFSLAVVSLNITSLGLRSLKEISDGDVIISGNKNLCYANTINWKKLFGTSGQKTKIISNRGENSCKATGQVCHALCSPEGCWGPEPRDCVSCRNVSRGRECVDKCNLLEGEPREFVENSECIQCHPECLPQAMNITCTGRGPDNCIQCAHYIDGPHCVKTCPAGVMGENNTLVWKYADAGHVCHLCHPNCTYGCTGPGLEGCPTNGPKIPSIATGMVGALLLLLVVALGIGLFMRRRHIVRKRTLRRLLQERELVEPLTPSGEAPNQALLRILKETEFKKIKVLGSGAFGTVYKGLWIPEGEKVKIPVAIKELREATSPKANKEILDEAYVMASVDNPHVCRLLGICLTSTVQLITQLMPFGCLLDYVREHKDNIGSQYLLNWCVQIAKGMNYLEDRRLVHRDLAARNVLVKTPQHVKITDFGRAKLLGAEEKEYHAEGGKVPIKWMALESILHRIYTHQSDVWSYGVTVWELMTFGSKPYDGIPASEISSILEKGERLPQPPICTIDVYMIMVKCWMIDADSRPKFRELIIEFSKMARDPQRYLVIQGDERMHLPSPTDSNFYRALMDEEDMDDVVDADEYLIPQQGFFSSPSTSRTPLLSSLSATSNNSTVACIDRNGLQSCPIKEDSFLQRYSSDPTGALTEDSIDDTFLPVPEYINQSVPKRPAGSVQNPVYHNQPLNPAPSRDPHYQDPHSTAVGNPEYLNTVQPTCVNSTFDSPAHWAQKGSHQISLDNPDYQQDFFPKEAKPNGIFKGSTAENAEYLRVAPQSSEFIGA

[14] = PAMPA (parallel artificial membrane permeability assay); assay type: in vitro ADME; settings: pH 7.4, 500 µM, 16 hours
Description: masses and 0.02 Da for fragment ions. FDR was adjusted to 1% on peptide spectrum match […]
Microsomal stability (phase I) assay.
Metabolic stability under oxidative conditions was measured in liver microsomes from different species by LC/MS-based measuring of depletion of compound at a concentration of 3 µM over time up to 50 minutes (HLM) or 60 minutes (MLM) at 37 °C. Based on the compound half-life t1/2, the in vitro intrinsic clearance CLint was calculated.
Plasma stability was measured by LC/MS-based determination of the percentage of remaining compounds at a concentration of 5 µM after incubation in plasma obtained from different species […]
Assessment of plasma protein binding was measured by equilibrium dialysis by incubating plasma with the compound of interest at a concentration of 5 µM for 6 h at 37 °C followed by LC/MS-based determination of final compound concentrations.
PAMPA (Parallel artificial membrane permeability assay). […]
temperature in a wet chamber, the optical density of the solution in the receiver well was measured between 250 and 500 nm in intervals of 10 nm. The percent flux was calculated from […]

[15] = Plasma protein binding, mouse; assay type: in vitro ADME; settings: equilibrium dialysis, 37 °C
Description: Assessment of plasma protein binding was measured by equilibrium dialysis by incubating plasma
based determination of final compound concentrations. […]

[16] = Plasma stability, human; assay type: in vitro ADME; settings: 5 µM, 1 h, 37 °C

EPHA1, sequence (P21709 26-976): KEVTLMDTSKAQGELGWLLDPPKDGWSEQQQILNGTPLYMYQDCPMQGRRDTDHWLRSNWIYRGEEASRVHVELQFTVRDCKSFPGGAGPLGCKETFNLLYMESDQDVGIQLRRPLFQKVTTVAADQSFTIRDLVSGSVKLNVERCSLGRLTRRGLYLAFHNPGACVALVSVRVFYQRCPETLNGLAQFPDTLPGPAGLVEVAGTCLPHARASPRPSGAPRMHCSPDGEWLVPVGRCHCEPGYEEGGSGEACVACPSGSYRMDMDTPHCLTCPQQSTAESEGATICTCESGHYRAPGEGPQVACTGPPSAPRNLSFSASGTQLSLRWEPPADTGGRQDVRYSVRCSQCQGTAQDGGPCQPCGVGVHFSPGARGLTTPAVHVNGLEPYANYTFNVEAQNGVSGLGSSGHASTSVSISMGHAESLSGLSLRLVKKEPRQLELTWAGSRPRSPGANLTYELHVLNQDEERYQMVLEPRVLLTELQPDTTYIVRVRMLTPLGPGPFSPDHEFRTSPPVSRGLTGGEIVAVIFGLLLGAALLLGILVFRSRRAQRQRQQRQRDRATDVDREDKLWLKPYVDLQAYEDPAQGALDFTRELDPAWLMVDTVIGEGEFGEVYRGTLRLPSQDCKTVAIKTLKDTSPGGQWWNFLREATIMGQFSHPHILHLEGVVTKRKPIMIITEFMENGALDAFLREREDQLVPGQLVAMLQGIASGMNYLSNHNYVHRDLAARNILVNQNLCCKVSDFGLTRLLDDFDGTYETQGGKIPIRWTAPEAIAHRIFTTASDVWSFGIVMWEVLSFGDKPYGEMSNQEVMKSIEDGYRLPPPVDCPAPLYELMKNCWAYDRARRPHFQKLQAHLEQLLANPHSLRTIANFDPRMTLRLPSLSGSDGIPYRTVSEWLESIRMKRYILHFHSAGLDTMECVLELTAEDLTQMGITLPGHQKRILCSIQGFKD

| SMILES | inhibition at 1 µM [1] | inhibition at 1 µM [2] | inhibition at 1 µM [3] | inhibition at 1 µM [4] | inhibition at 1 µM [5] | inhibition at 1 µM [6] | inhibition at 1 µM [7] | inhibition at 1 µM [8] | inhibition at 1 µM [9] | inhibition at 1 µM [10] | inhibition at 1 µM [11] | inhibition at 1 µM [12] | Ki [13] | kinact [13] | kinact/KI [13] | PAMPA flux [14] | fraction unbound at 6 h, 5 µM [15] | Plasma stability [16] |
| --- | --- | --- | --- | --- | --- | --- | --- | --- | --- | --- | --- | --- | --- | --- | --- | --- | --- | --- |
| C=CC(=O)Nc1cccc(-c2c(-c3ccc(CN4CCN(C)CC4)cc3)[nH]c3ncnc(OC)c23)c1 [Compound 17a] | 72 ± 2% | 70 ± 2% | 72 ± 3% | 96 ± 2% | 77% | 97 ± 2% | 100 ± 1% | 96 ± 1% | 93 ± 1% | 91 ± 2% | 89 ± 1% | 82 ± 6% |  |  |  |  |  |  |
| C=CC(=O)Nc1cccc(-c2c(-c3ccc(N4CCN(C)CC4)cc3)[nH]c3ncnc(OCC(C)C)c23)c1 [Compound 19h] |  |  |  |  |  |  |  |  |  |  |  |  | 0.5 ± 0.1 nM | 0.00467 s⁻¹ | 8.78e+06 ± 650000 M⁻¹ s⁻¹ | 88% | 0.003 | 99 %remain and 100 %remain |
